{"source": "paper PMC10840338", "about": "“High efficacy of the F-ATP synthase inhibitor TBAJ-5307 against nontuberculous mycobacteria in vitro and in vivo” (The Journal of Biological Chemistry, 2024)", "molecular_target": "T1, F1FO-ATP synthase (FO domain, subunit c ring with subunit a) (Mycobacteroides abscessus, UniProt B1MLV6+B1MLV7)", "T1 construct": "gene atpE; native F1FO-ATP synthase in inverted-membrane vesicles of M. subsp. abscessus R variant; with subunit a (atpB); whole complex α3:β3:γ:ε:b-δ:b’:a:c9", "assay": "ATP synthesis inhibition in inverted-membrane vesicles (luminescence)", "assay_type": "biochemical"}
{"smiles": "COc1cc([C@](O)(CCN(C)C)[C@@H](c2cc3cc(Br)ccc3nc2OC)c2ccnc(OC)c2OC)cc(OC)n1", "note": "[TBAJ-5307]", "values": [{"measurement": "IC50", "value": 1.4, "unit": "nM"}]}
